Measured values reported in US12296009B2, “Immunogenic composition for the treatment of cancer” (APGEN THERAPUETICS AB, priority 2017, dated 2025).

How the values were obtained:
JAK1 = JAK1 mRNA expression by RT-qPCR; assay type: cell-based, human; settings: ANRU, ROAL and A375 cells, JQ1 by itself and in combination
Text: (§1) (B) mRNA expression levels, measured by RT-qPCR, in ANRU, ROAL and A375 cells of STAT1 and JAK1, two proteins crucially involved in signaling downstream of IFNγ ligation to its cognate receptor.

[1] = system: antigen-presentation machinery (APM); experiment: mRNA expression of antigen-presentation machinery components by qPCR; assay type: cell-based, human
Protocol: (§2) This was most apparent for HLA class I heavy chain, and overall was most clearly seen in A375 cells.
Moreover, the presence of a HLA class I blocking antibody always fully abrogated T-cell recognition in co-cultures with pretreated tumors. […] Therefore, we studied mRNA and protein expression of well-known components of the antigen-presentation machinery (APM) after pretreatment with JQ1 alone and/or IFNγ.
(§3) To study the time kinetics of these effects, the ANRU cell line was treated in the same way for 12, 24, 48 and 72 hours. […] This was most apparent for HLA class I heavy chain, and overall was most clearly seen in A375 cells.

KADA tumor cells = experiment: Co-culture of pretreated KADA tumor cells with autologous TIL, IFNγ ELISA on supernatant; assay type: cell-based, human
Protocol: (§4) Cells were subsequently trypsinized, washed and co-cultured for 24 hours with autologous tumor-infiltrating lymphocytes (TIL). Co-culture supernatants were assessed by ELISA for IFNγ levels, as a measure for tumor recognition by the TIL.
(§5) The early-passage melanoma cell lines ANRU, ROAL and KADA were established from patients at the oncology clinic at Karolinska University Hospital (ethical permit: #2011/143-32/1) based on a published protocol.21 Mycoplasma-free (MycoAlert kit) cell lines were in their 15th to 45th passage when used in this study.
(§6) Culture and expansion of tumor-infiltrating lymphocytes was done as published before.^4 A piece of the tumor (approximately 0.5 cm3) was minced into 1 mm3 pieces. Each piece was placed in one well of a 24-well plate containing 1 mL/well CellGro medium supplemented with 2% autologous plasma (generated by centrifugation and heat-inactivation of plasma collected on the day of surgery) and 6,000 IU/mL IL-2 (Proleukin, Novartis, Basel, Switzerland). On day 1 of culture, half of the medium volume in each well was replaced with fresh medium supplemented with plasma and IL-2. After 3-4 days of culture, lymphocytes could usually be seen emerging from the tumor piece. Cultures were monitored regularly and split before reaching confluence. After approximately 2 weeks, expanding wells were pooled and counted. […] At the end of culture, cells were harvested, pooled, characterized, counted and frozen.
(§7) We show herein that treating patient-derived early-passage melanoma cell lines with JQ1 enhances recognition by autologous TIL. […] Along with this, PD-L1 and HLA class I expression were assessed by flow cytometry in pretreated tumor cells to find out whether functional observations in the tumor-TIL co-cultures would be associated with changes in PD-L1 expression or HLA class I expression, both markers being key determinants of T-cell activation upon target cell recognition.

MYC = MYC expression by western blot; assay type: cell-based; settings: 72 hours JQ1 alone or in combination with IFNγ
ANRU tumor cells = experiment: Co-culture of pretreated ANRU tumor cells with autologous TIL, IFNγ ELISA on supernatant; assay type: cell-based, human; settings: for Time kinetics of sensitization for recognition by TIL: ANRU pretreated 12, 24, 48 and 72 hours; for Time kinetics of sensitization for recognition by TIL / T-cell recognition by autologous TIL (IFNγ production in co-culture): 24 hours co-culture
Protocol: Tumor cells were also co-cultured with unsorted TIL, and TIL without specificity for the aforementioned tumor antigens (designated ‘neg’).
as §4, §5
Culture and expansion of tumor-infiltrating lymphocytes was done as published before.^4 A piece of the tumor (approximately 0.5 cm3) was minced into 1 mm3 pieces. Each piece was placed in one well of a 24-well plate containing 1 mL/well CellGro medium supplemented with 2% autologous plasma (generated by centrifugation and heat-inactivation of plasma collected on the day of surgery) and 6,000 IU/mL IL-2 (Proleukin, Novartis, Basel, Switzerland). On day 1 of culture, half of the medium volume in each well was replaced with fresh medium supplemented with plasma and IL-2. After 3-4 days of culture, lymphocytes could usually be seen emerging from the tumor piece. Cultures were monitored regularly and split before reaching confluence. After approximately 2 weeks, expanding wells were pooled and counted. To generate large T cell numbers, TIL were cultured for approximately 14 days in presence of autologous, irradiated feeders (40 Gy, TIL:feeder ratio 1:50-1:80) with 300 IU/mL IL-2 and 30 ng/mL anti-CD3 antibody (OKT3, Cilag, Zug, Switzerland). Cells were split or medium exchanged as necessary. Cultures were initiated in standing T75 flasks, but transferred to VueLife cell culture bags 1 week before harvest. At the end of culture, cells were harvested, pooled, characterized, counted and frozen.
as §7
To test this, we co-cultured ANRU tumor cells for 24 hours with autologous TIL in the presence and absence of a PD-L1 blocking antibody. Suitable PD-L1 blocking antibodies are commercially available, and include anti-human CD274 (B7-H1, PD-L1) Antibody (clone 29E.2A3; Cat No. 329709; Biolegend), anti-human CD274 (B7-H1, PD-L1) Antibody (clone MIH3; Cat No. 374502; Biolegend), Anti-PD-L1 (CD274) Neutralizing Antibody (Cat No. 71213; BPS Bioscience), PD-L1/B7-H1/CD274 Blocking Antibody (clone R639; Cat No. 10084-R639; Sino Biological) and Human PD-L1/B7-H1 Antibody (Cat No. AF156; R and D Systems). Tumors cell were pretreated for 12, 24, 48 and 72 hours, to check for any PD-L1 induction or suppression over time by flow cytometry, and to define the time kinetics of JQ1-induced sensitization of tumors for recognition by TIL in a co-culture. We reasoned that recognition by autologous TIL should not be affected by PD-L1 blockade at any time point if ANRU tumor cells would be PD-L1 negative under all conditions.
Herein, we addressed the question whether enhanced tumor recognition by autologous TIL after JQ1 treatment is directed at tumor-associated antigens or tumor-specific mutant antigens. Therefore we co-cultured ANRU cells with TIL sorted for their specifity towards either the tumor-associated antigen MART-1, or two different tumor-specific mutant antigens, designated ETV6.9 and NUP210.

PD-L1 = PD-L1 expression on tumor cells by flow cytometry; assay type: cell-based, human; settings: 72 hours JQ1 and/or IFNγ
Protocol: (§8) Flow cytometry was done after staining with the following antibodies: anti-human HLA-ABC APC-Cy7 (clone W6/32; Biolegend, San Diego, CA, USA), CD274 BV786 (clone MIH1; BD Biosciences, Franklin lakes, NJ, USA). All data were acquired on a Novocyte 2000 [?] flow cytometer (Acea Biosciences, San Diego, CA, USA) were analyzed using FlowJo software version 10 (Treestar).
as §7

ROAL tumor cells = experiment: Co-culture of pretreated ROAL tumor cells with autologous TIL, IFNγ ELISA on supernatant; assay type: cell-based, human
Protocol: as §4, §5, §6, §7

CD73 = CD73 expression on tumor cell lines by flow cytometry; assay type: cell-based; settings: commercially available human tumor cell lines of various origins, 72 hours JQ1 and/or IFNγ (FIG. 7)
HLA class II = HLA class II expression on tumor cells by flow cytometry; assay type: cell-based, human
[2] = system: antigen-presentation machinery (APM); experiment: Western blot of antigen-presentation machinery components; assay type: cell-based, human; settings: ANRU, ROAL, KADA and A375 cells, 72 hours JQ1 and/or IFNγ; most clearly in A375
Protocol: as §2, §3

A375 tumor cells = experiment: Co-culture of pretreated A375 tumor cells with allogeneic T cells, IFNγ ELISA on supernatant; assay type: cell-based, human; settings: A375, 72 hours JQ1 alone or in combination with IFNγ, 24 hours co-culture with allogeneic T cells
HLA class I = HLA class I expression on tumor cells by flow cytometry; assay type: cell-based, human; settings: for HLA class I induction by IFNγ in combination with BETi: increasing BETi concentrations with a standard concentration of IFNγ (FIG. 5)
Protocol: as §8, §7

STAT1 = STAT1 mRNA expression by RT-qPCR; assay type: cell-based, human; settings: ANRU, ROAL and A375 cells, JQ1 with IFNγ
Text: as §1

IDO = IDO expression in tumor cells by flow cytometry; assay type: cell-based, human; settings: early-passage melanoma cell lines, 72 hours JQ1 and/or IFNγ (FIG. 6)
[3] = pretreatment with the substance alone
[4] = ANRU, 72 hours pretreatment with the substance alone
[5] = ANRU, 72 hours, IFNγ in the presence of JQ1

Compound: Cc1sc2c(c1C)C(c1ccc(Cl)cc1)=N[C@@H](CC(=O)OC(C)(C)C)c1nnc(C)n1-2 [JQ1]
- JAK1 mRNA expression (JAK1): consistently increases JAK1 expression
- mRNA induction of APM components by IFNγ, time kinetics ([1]; ANRU, 12, 24, 48 and 72 hours, 0.4 μM JQ1 and/or 25 ng/ml IFNγ): potentiated the induction of APM components by IFNγ at all time points
- mRNA induction of APM components by IFNγ ([1]; ANRU, ROAL, KADA and A375 cells, 72 hours JQ1 and/or IFNγ, most pronounced for HLA class I, B2M, TAP1 and TAP2): potentiated their induction by IFNγ
- Recognition by autologous TIL (IFNγ production in co-culture) (KADA tumor cells; pretreatment with combination of IFNγ and JQ1, versus IFNγ): led to a reduction in tumor cell recognition
- Recognition by autologous TIL (IFNγ production in co-culture) (KADA tumor cells; [3]): did not sensitize
- MYC expression (MYC): downregulated
- Effect of PD-L1 blocking antibody on recognition of pretreated tumor cells by TIL (ANRU tumor cells; ANRU pretreated 12, 24, 48 and 72 hours with JQ1 and/or IFNγ, 24 hours co-culture with or without PD-L1 blocking antibody): no effect of PD-L1 blockade was seen
- Time kinetics of sensitization for recognition by TIL (ANRU tumor cells): most prominent after pretreatment with JQ1 alone for 72 hours
- Recognition by TIL sorted for MART-1, ETV6.9 and NUP210 specificity (IFNγ in co-culture supernatant) (ANRU tumor cells; ANRU, 0.4 μM JQ1 for 72 hours): improved recognition by all three TIL populations
- T-cell recognition by autologous TIL (IFNγ production in co-culture) (ANRU tumor cells; ANRU, 72 hours pretreatment with JQ1 in combination with IFNγ): did not lead to any increases in T-cell recognition
- T-cell recognition by autologous TIL (IFNγ production in co-culture) (ANRU tumor cells; [4]): dose-dependent increase in T-cell recognition
- PD-L1 expression (PD-L1; ANRU): wholly absent under all conditions
- Constitutive and IFNγ-induced PD-L1 expression (PD-L1; KADA): strongly suppressed
- PD-L1 expression (PD-L1; ROAL): marginal if not absent under all conditions
- Recognition by autologous TIL (IFNγ production in co-culture) (ROAL tumor cells; pretreatment with combination of JQ1 and IFNγ): significantly better and synergistically recognize
- Recognition by autologous TIL (IFNγ production in co-culture) (ROAL tumor cells; [3]): did not sensitize
- CD73 induction by IFNγ (CD73): suppresses CD73 induction by IFNγ
- HLA class II upregulation by IFNγ (HLA class II; [5]): upregulation of HLA class II was actually suppressed
- Constitutive and IFNγ-induced HLA class II expression (HLA class II; early-passage melanoma cell lines, 72 hours JQ1 and/or IFNγ (FIG. 6)): clearly suppressed
- Protein level induction of APM components by IFNγ (TAP1, TAP2, Tapasin, HLA class I heavy chain, LMP2, LMP10) [2]: Enhanced induction of APM components by IFNγ
- T-cell recognition (IFNγ levels in co-culture supernatants) compared to DMSO-treated tumor cells (A375 tumor cells): strongly and significantly enhanced
- HLA class I induction by IFNγ (HLA class I; A375, 72 hours, IFNγ in the presence of JQ1 (FIG. 1)): enhances HLA class I induction by IFNγ
- HLA class I induction by IFNγ in combination with BETi (HLA class I; A375, 72 hours): clear dose-dependent enhancement of HLA class I induction by IFNγ
- HLA class I induction by IFNγ (HLA class I; A549 (lung carcinoma), 72 hours JQ1 and/or IFNγ): enhances HLA class I induction by IFNγ
- HLA class I induction by IFNγ (HLA class I; [5]): consistent enhancement of HLA class I induction by IFNγ
- HLA class I induction by IFNγ (HLA class I; HCT116 (colon carcinoma), 72 hours JQ1 and/or IFNγ): enhances HLA class I induction by IFNγ
- HLA class I induction by IFNγ (HLA class I; HeLa (cervical carcinoma), 72 hours JQ1 and/or IFNγ): enhances HLA class I induction by IFNγ
- HLA class I induction by IFNγ (HLA class I; KADA, 72 hours, IFNγ in the presence of JQ1): reduced HLA class I induction by IFNγ
- HLA class I induction by IFNγ (HLA class I; ROAL, 72 hours, IFNγ in the presence of JQ1): significantly more strongly induced by IFNγ
- HLA class I induction by IFNγ in combination with BETi (HLA class I; ROAL, 72 hours): clear dose-dependent enhancement of HLA class I induction by IFNγ
- STAT1 mRNA induction by IFNγ (STAT1): strongly enhances induction of STAT1 by IFNγ
- IFNγ-induced IDO expression (IDO): suppresses IFNγ-induced IDO expression

Compound: CCNC(=O)C[C@@H]1N=C(c2ccc(Cl)cc2)c2cc(OC)ccc2-n2c(C)nnc21 [I-BET762]
- HLA class I induction by IFNγ in combination with BETi (HLA class I; A375, 72 hours): clearly increased
- HLA class I induction by IFNγ in combination with BETi (HLA class I; ROAL, 72 hours): clearly increased

Compound: IFNγ: Interferon gamma (IFNγ), a known physiological cue for sensitization of target cells for T-cell recognition
- Recognition by autologous TIL (IFNγ production in co-culture) (KADA tumor cells; [3]): strongly sensitized
- Time kinetics of sensitization for recognition by TIL (ANRU tumor cells): did not lead to an improvement of tumor recognition
- T-cell recognition by autologous TIL (IFNγ production in co-culture) (ANRU tumor cells; [4]): did not lead to any increases in T-cell recognition
- Recognition by autologous TIL (IFNγ production in co-culture) (ROAL tumor cells; [3]): did not sensitize the cells

Compound: COc1cc2c(cc1-c1c(C)noc1C)ncc1[nH]c(=O)n([C@H](C)c3ccccn3)c12 [I-BET151]
- HLA class I induction by IFNγ in combination with BETi (HLA class I; A375, 72 hours): clearly increased
- HLA class I induction by IFNγ in combination with BETi (HLA class I; ROAL, 72 hours): clearly increased
